# Results from US8058475B2, “Substituted cyclohexylmethyl compounds” (Gruenenthal GmbH, priority 2005, dated 2011).
# Where two headings read alike, the source gives them in different places.
# Target: human μ-opiate receptor (Homo sapiens, UniProt P35372)
# Experiment: Affinity for the human μ-opiate receptor ([3H]-naloxone displacement, SPA, CHO-K1 membrane preparation)
# Format: binding
# Settings: for inhibition at 1 µM: read-out: μ-Opioid receptor, % inhibition [1 μM]; for Ki: read-out: μ-Opioid receptor, Ki
# Sequence of human μ-opiate receptor (P35372 whole entry): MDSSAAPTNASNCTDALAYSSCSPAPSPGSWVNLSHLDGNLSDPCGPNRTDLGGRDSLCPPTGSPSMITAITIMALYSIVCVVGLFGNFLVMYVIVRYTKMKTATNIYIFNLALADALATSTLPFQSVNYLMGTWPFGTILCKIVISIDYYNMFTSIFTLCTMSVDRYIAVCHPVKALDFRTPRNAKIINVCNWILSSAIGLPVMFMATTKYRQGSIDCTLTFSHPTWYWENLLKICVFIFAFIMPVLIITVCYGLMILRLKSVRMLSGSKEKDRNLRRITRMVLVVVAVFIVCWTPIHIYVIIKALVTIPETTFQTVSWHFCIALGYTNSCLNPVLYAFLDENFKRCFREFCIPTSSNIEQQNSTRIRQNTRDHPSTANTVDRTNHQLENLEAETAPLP
SMILES,inhibition at 1 µM,Ki,"μ-Opioid receptor, % inhibition [1 μM]","μ-Opioid receptor, % inhibition [1 μM] (1 µM)"
"CN(C)C(c1cccs1)C1CCC(CNC(=O)c2csc3ccccc23)CC1 (stereo not drawn) [compound 302, benzo[b]thiophene-3-carboxylic acid [4-(dimethylamino-thiophen-2-yl-methyl)-cyclohexylmethyl]-amide]",99%,1.6 nM,–,–
"COc1c(C(=O)NCC2CCC(C(c3cccc(F)c3)N(C)C)CC2)csc1Cl (stereo not drawn) [compound 303, 5-chloro-4-methoxy-thiophene-3-carboxylic acid {4-[dimethylamino-(3-fluoro-phenyl)-methyl]-cyclohexylmethyl}-amide]",99%,19 nM,–,–
"CC(Oc1ccccc1)C(=O)NCC1CCC(C(c2cccs2)N(C)C)CC1 (stereo not drawn) [compound 304, N-[4-(dimethylamino-thiophen-2-yl-methyl)-cyclohexylmethyl]-2-phenoxy-propionamide]",99%,15 nM,–,–
"COc1ccccc1C(=O)NCC1CCC(C(c2cccs2)N(C)C)CC1 (stereo not drawn) [compound 305, N-[4-(dimethylamino-thiophen-2-yl-methyl)-cyclohexylmethyl]-2-methoxy-benzamide]",98%,12 nM,–,–
"CN(C)C(c1ccccc1)C1CCC(CNC(=O)Cc2ccccc2)CC1 (stereo not drawn) [compound 306, N-[4-(dimethylamino-phenyl-methyl)-cyclohexylmethyl]-2-phenyl-acetamide]",98%,9.9 nM,–,–
"CN(C)C(c1cccs1)C1CCC(CNC(=O)c2cccc(Br)c2)CC1 (stereo not drawn) [compound 307, 3-bromo-N-[4-(dimethylamino-thiophen-2-yl-methyl)-cyclohexylmethyl]-benzamide]",98%,6.2 nM,–,–
"CN(C)C(c1cccs1)C1CCC(CNC(=O)c2cc(F)cc(C(F)(F)F)c2)CC1 (stereo not drawn) [compound 308, N-[4-(dimethylamino-thiophen-2-yl-methyl)-cyclohexylmethyl]-3-fluoro-5-trifluoromethyl-benzamide]",98%,7.4 nM,–,–
"CN(C)C(c1ccc(Cl)cc1)C1CCC(CNC(=O)CC(C)(C)C)CC1 (stereo not drawn) [compound 309, N-{4-[(4-chloro-phenyl)-dimethylamino-methyl]-cyclohexylmethyl}-3,3-dimethyl-butyramide]",98%,5.6 nM,–,–
"CCSc1ncccc1C(=O)NCC1CCC(C(c2ccccc2)N(C)C)CC1 (stereo not drawn) [compound 310, N-[4-(dimethylamino-phenyl-methyl)-cyclohexylmethyl]-2-ethylsulfanyl-nicotinamide]",98%,16 nM,–,–
"CN(C)C(c1cccs1)C1CCC(CNC(=O)Cc2ccc(Cl)cc2)CC1 (stereo not drawn) [compound 311, 2-(4-chloro-phenyl)-N-[4-(dimethylamino-thiophen-2-yl-methyl)-cyclohexyl-methyl]-acetamide]",98%,11 nM,–,–
"CN(C)C(c1ccc(Cl)cc1)C1CCC(CNC(=O)C(c2ccccc2)c2ccccc2)CC1 (stereo not drawn) [compound 312, N-{4-[(4-chloro-phenyl)-dimethylamino-methyl]-cyclohexylmethyl}-2,2-diphenyl-acetamide]",97%,53 nM,–,–
"CN(C)C(c1cccs1)C1CCC(CNC(=O)c2c(F)cccc2F)CC1 (stereo not drawn) [compound 313, N-[4-(dimethylamino-thiophen-2-yl-methyl)-cyclohexylmethyl]-2,6-difluoro-benzamide]",97%,35 nM,–,–
"CN(C)C(c1cccc(F)c1)C1CCC(CNC(=O)c2csc3ccccc23)CC1 (stereo not drawn) [compound 314, benzo[b]thiophene-3-carboxylic acid {4-[dimethylamino-(3-fluoro-phenyl)-methyl]-cyclohexylmethyl}-amide]",97%,4.2 nM,–,–
"CSc1ncccc1C(=O)NCC1CCC(C(c2ccc(Cl)cc2)N(C)C)CC1 (stereo not drawn) [compound 315, N-{4-[(4-chloro-phenyl)-dimethylamino-methyl]-cyclohexylmethyl}-2-methyl-sulfanyl-nicotinamide]",–,160 nM,97%,–
"CN(C)C(c1ccc(Cl)cc1)C1CCC(CNC(=O)Cc2cccs2)CC1 (stereo not drawn) [compound 316, N-{4-[(4-chloro-phenyl)-dimethylamino-methyl]-cyclohexylmethyl}-2-thiophen-2-yl-acetamide]",96%,–,–,–
"CN(C)C(c1ccccc1)C1CCC(CNC(=O)C2(c3ccc(Cl)cc3)CCCC2)CC1 (stereo not drawn) [compound 318, 1-(4-chloro-phenyl)-cyclopentane-carboxylic acid [4-(dimethylamino-phenyl-methyl)-cyclohexylmethyl]-amide]",95%,23 nM,–,–
"COc1cccc(CC(=O)NCC2CCC(C(c3ccc(Cl)cc3)N(C)C)CC2)c1 (stereo not drawn) [compound 320, N-{4-[(4-chloro-phenyl)-dimethylamino-methyl]-cyclohexylmethyl}-2-(3-methoxy-phenyl)-acetamide]",95%,28 nM,–,–
"CCC(C(=O)NCC1CCC(C(c2ccccc2)N(C)C)CC1)c1ccccc1 (stereo not drawn) [compound 321, N-[4-(dimethylamino-phenyl-methyl)-cyclohexylmethyl]-2-phenyl-butyramide]",95%,22 nM,–,–

SMILES,inhibition at 1 µM,Ki,"μ-Opioid receptor, % inhibition [1 μM]","μ-Opioid receptor, % inhibition [1 μM] (1 µM)"
"CN(C)C(c1ccc(F)cc1)C1CCC(CNC(=O)CC(C)(C)C)CC1 (stereo not drawn) [compound 322, N-{4-[dimethylamino-(4-fluoro-phenyl)-methyl]-cyclohexylmethyl}-3,3-dimethyl-butyramide]",95%,31 nM,–,–
"CC(Oc1ccccc1)C(=O)NCC1CCC(C(c2ccccc2)N(C)C)CC1 (stereo not drawn) [compound 323, N-[4-(dimethylamino-phenyl-methyl)-cyclohexylmethyl]-2-phenoxy-propionamide]",95%,15 nM,–,–
"CN(C)C(c1ccccc1)C1CCC(CNC(=O)Cc2ccc(Cl)cc2)CC1 (stereo not drawn) [compound 324, 2-(4-chloro-phenyl)-N-[4-(dimethylamino-phenyl-methyl)-cyclohexylmethyl]-acetamide]",95%,22 nM,–,–
"CN(C)C(c1cccc(F)c1)C1CCC(CNC(=O)C2(c3ccc(Cl)cc3)CCCC2)CC1 (stereo not drawn) [compound 327, 1-(4-chloro-phenyl)-cyclopentane-carboxylic acid {4-[dimethylamino-(3-fluoro-phenyl)-methyl]-cyclohexylmethyl}-amide]",94%,63 nM,–,–
"CN(C)C(c1ccccc1)C1CCC(CNC(=O)c2cccs2)CC1 (stereo not drawn) [compound 328, thiophene-2-carboxylic acid [4-(dimethylamino-phenyl-methyl)-cyclohexyl-methyl]-amide]",94%,16 nM,–,–
"CN(C)C(c1ccccc1)C1CCC(CNC(=O)c2cc(Cl)cc(Cl)c2)CC1 (stereo not drawn) [compound 329, 3,5-dichloro-N-[4-(dimethylamino-phenyl-methyl)-cyclohexylmethyl]-benzamide]",94%,35 nM,–,–
"Cc1oc(-c2ccccc2)cc1C(=O)NCC1CCC(C(c2ccc(Cl)cc2)N(C)C)CC1 (stereo not drawn) [compound 330, 2-methyl-5-phenyl-furan-3-carboxylic acid {4-[(4-chloro-phenyl)-dimethylamino-methyl]-cyclohexylmethyl}-amide]",94%,39 nM,–,–
"CN(C)C(c1ccccc1)C1CCC(CNC(=O)c2cccc(Cl)c2)CC1 (stereo not drawn) [compound 331, 3-chloro-N-[4-(dimethylamino-phenyl-methyl)-cyclohexylmethyl]-benzamide]",93%,11 nM,–,–
"CN(C)C(c1ccccc1)C1CCC(CNC(=O)c2csc(-c3ccccc3)n2)CC1 (stereo not drawn) [compound 335, 2-phenyl-thiazole-4-carboxylic acid [4-(dimethylamino-phenyl-methyl)-cyclohexylmethyl]-amide]",92%,33 nM,–,–
"Cc1ccc(Oc2ncccc2C(=O)NCC2CCC(C(c3cccc(F)c3)N(C)C)CC2)cc1 (stereo not drawn) [compound 337, N-{4-[dimethylamino-(3-fluoro-phenyl)-methyl]-cyclohexylmethyl}-2-p-tolyloxy-nicotinamide]",92%,–,–,–
"CN(C)C(c1ccccc1)C1CCC(CNC(=O)c2c(Cl)cc(Cl)cc2Cl)CC1 (stereo not drawn) [compound 338, 2,4,6-trichloro-N-[4-(dimethylamino-phenyl-methyl)-cyclohexylmethyl]-benzamide]",91%,28 nM,–,–
"CN(C)C(c1ccccc1)C1CCC(CNC(=O)C2(c3ccc(Cl)cc3)CCCC2)CC1 (stereo not drawn) [compound 339, 1-(4-chloro-phenyl)-cyclopentane-carboxylic acid [4-(dimethylamino-phenyl-methyl)-cyclohexylmethyl]-amide]",–,25 nM,–,91%
"CN(C)C(c1cccc(F)c1)C1CCC(CNC(=O)Cc2cccs2)CC1 (stereo not drawn) [compound 343, N-{4-[dimethylamino-(3-fluoro-phenyl)-methyl]-cyclohexylmethyl}-2-thiophen-2-yl-acetamide]",90%,–,–,–
"CN(C)C(c1ccc(F)cc1)C1CCC(CNC(=O)c2csc3ccccc23)CC1 (stereo not drawn) [compound 344, benzo[b]thiophene-3-carboxylic acid {4-[dimethylamino-(4-fluoro-phenyl)-methyl]-cyclohexylmethyl}-amide]",90%,13 nM,–,–
"Cc1oc(-c2ccccc2)cc1C(=O)NCC1CCC(C(c2ccccc2)N(C)C)CC1 (stereo not drawn) [compound 345, 2-methyl-5-phenyl-furan-3-carboxylic acid [4-(dimethylamino-phenyl-methyl)-cyclohexylmethyl]-amide]",90%,13 nM,–,–
"CC(Oc1ccccc1)C(=O)NCC1CCC(C(c2cccc(F)c2)N(C)C)CC1 (stereo not drawn) [compound 346, N-{4-[dimethylamino-(3-fluoro-phenyl)-methyl]-cyclohexylmethyl}-2-phenoxy-propionamide]",90%,65 nM,–,–
"CN(C)C(c1cccs1)C1CCC(CNC(=O)c2cccc(C#N)c2)CC1 (stereo not drawn) [compound 347, 3-cyano-N-[4-(dimethylamino-thiophen-2-yl-methyl)-cyclohexylmethyl]-benzamide]",90%,26 nM,–,–
"COc1cccc(CC(=O)NCC2CCC(C(c3ccccc3)N(C)C)CC2)c1 (stereo not drawn) [compound 349, N-[4-(dimethylamino-phenyl-methyl)-cyclohexylmethyl]-2-(3-methoxy-phenyl)-acetamide]",89%,50 nM,–,–
